PMC10578352, “Identification of a Protein Arginine Methyltransferase 7 (PRMT7)/Protein Arginine Methyltransferase 9 (PRMT9) Inhibitor” (Journal of Medicinal Chemistry, 2023)

Experiments:
human recombinant PRMT9 = molecular target: T1, human recombinant PRMT9 (Homo sapiens, UniProt Q6P2P2); experiment: AlphaLISA PRMT9 activity assay (modified BPS kit, biotinylated SF3B2 peptide); format: biochemical; settings: PRMT9 0.105 μM, biotinylated SF3B2 (500–519) peptide 100 nM, SAM 25 μM
T1 construct: human recombinant PRMT9 (2–845; N-terminal FLAG-tag, C-terminal His6-tag); FLAG (N); His6 (C); purchased BPS BioScience 79124
T1 sequence (Q6P2P2 2-845): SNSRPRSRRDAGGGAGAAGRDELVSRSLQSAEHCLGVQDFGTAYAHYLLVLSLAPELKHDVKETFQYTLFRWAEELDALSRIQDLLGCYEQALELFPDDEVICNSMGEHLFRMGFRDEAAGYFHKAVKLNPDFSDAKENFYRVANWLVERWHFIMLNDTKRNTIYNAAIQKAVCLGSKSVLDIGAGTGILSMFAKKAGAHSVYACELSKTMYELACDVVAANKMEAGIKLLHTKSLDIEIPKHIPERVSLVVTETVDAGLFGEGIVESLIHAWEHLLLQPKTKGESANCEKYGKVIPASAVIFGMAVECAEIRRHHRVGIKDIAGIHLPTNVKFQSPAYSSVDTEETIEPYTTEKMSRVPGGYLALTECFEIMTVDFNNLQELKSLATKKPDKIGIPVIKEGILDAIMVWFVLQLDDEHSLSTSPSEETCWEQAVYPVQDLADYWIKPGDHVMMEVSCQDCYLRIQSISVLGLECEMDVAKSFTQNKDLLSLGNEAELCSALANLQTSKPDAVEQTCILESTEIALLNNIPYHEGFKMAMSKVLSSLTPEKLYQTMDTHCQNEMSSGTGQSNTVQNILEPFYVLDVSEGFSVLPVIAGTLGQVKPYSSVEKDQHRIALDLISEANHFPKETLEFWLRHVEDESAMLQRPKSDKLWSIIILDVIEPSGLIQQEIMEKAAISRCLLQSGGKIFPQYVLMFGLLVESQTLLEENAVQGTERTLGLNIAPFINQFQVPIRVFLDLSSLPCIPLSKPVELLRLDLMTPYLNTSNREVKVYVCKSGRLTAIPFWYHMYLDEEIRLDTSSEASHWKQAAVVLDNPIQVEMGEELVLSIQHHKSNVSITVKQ
Method: Accordingly, all the enzymatic inhibition data were obtained by performing the assays in these optimized conditions.
The reaction was incubated for 60 min. Afterward, in each well, 5 μL of a 1:100 dilution of Primary antibody 28 (BPS BioScience, #52140Z3) in Detection buffer (BPS BioScience) and 5 μL of anti-Rabbit acceptor beads (PerkinElmer, #AL104C) were added to obtain a final concentration of 20 μg/mL.
For each incubation step, the OptiPlate was sealed with a protective foil to prevent evaporation and contamination. Donor and Acceptor beads were added to the mixture in subdued light.
The 100% activity (positive control) was reached using vehicle (DMSO), while 0% activity (negative control) was obtained without the protein. Data were analyzed by using Excel and Prism software. Values obtained for each compound are mean ± SD determined for three separate experiments.

CePRMT9 = experiment: Radioisotope-based assay (SDS-PAGE, fluorography, densitometry), CePRMT9; format: biochemical, Caenorhabditis elegans; settings: substrate GST-CeSFTB-2 (99–248), 25 °C
Method: Based on these outcomes, we resolved to explore the effect on the capability to inhibit PRMT9 enzymatic activity of further reduction of the distance between the pharmacophoric moieties. […] After the experiment was repeated with 100, 250, and 500 μM concentrations of each inhibitor, half inhibition was observed only at a concentration of roughly 250 μM (Figure 4d).
[…]. The experiments were performed as reported in the Experimental procedures section. GST-HsPRMT9 (a) and GST-HsPRMT7 (b) were incubated with human GST-SF3B2 (401–550) peptide or recombinant HsH2B, respectively (1 μg of enzyme, 5 μg of substrate), 0.14 μM [^3H]SAM, and the indicated concentrations of tested compounds at the corresponding optimal reaction temperature (37 °C for HsPRMT9, 15 °C for HsPRMT7). C. elegans GST-tagged enzymes PRMT9 (c) and PRMT7 (d) were incubated with GST-CeSFTB-2 (99–248) fragment or recombinant HsH2B, respectively (1 μg of enzyme, 5 μg of substrate), 0.14 μM [^3H]SAM, and the indicated concentrations of tested compounds at the corresponding optimal reaction temperature (25 °C for CePRMT9, 15 °C for CePRMT7). After SDS-PAGE, the gels were treated as previously described[48] and densitometry analysis was done using ImageJ software, and data was plotted as normalized activity to the no inhibitor controls.
Human PRMT9, C. elegans PRMT9, human PRMT7, and C. elegans PRMT7 plasmids were sequenced, expressed in E. coli as GST-fusion proteins, and purified as previously described.[48] Substrates were also sequenced and purified as described [human GST-SF3B2 (401–550);[13]C. elegans SFTB-2;[48] human histone H2B (New England Biolabs, M2505S)]. Xenopus laevis histone H2B was expressed in E. coli and purified similarly to what was previously reported by Luger et al.[72]
Reactions consisting of approximately 1 μg of enzyme (human or C. elegans GST-tagged enzymes PRMT9 and PRMT7), reacted with approximately 5 μg of substrate [for human PRMT9, human GST-SF3B2 401–550 fragment; C. elegans PRMT9 with C. elegans GST-SFTB-2 (99–248) fragment, or recombinant human histone H2B from New England Biolabs (M2505S)], were incubated for the indicated time in reaction buffer {50 mM potassium HEPES buffer, 10 mM NaCl, 1 mM dithiothreitol (DTT), pH 8.0 with 0.7 μM S-adenosyl-L-[methyl-^3H]methionine (^3H-AdoMet, PerkinElmer Life Sciences, 82.7 Ci/mmol, 0.55 mCi/mL in 10 mM H2SO4/EtOH [9:1 (v/v)])} in a final reaction volume of 60 μL. Each reaction was incubated at the corresponding optimal reaction temperature (37 °C for human PRMT9, 25 °C for C. elegans PRMT9, and 15 °C for C. elegans and human PRMT7 enzymes. MTA was dissolved in water, and a wavelength scan was taken to determine the final concentration using the extinction coefficient. The final concentrations used are indicated in the figure legends. […]. EML734, EML736, and EML709 were also dissolved in DMSO, and further dilutions were made in DMSO for the working stocks. For controls, no inhibitor reactions were created by the addition of the respective solvent (water for MTA and DMSO for EPZ015666 and EML inhibitors).
After the reaction incubations with the various concentrations of inhibitors, the reactions were quenched by adding 0.2 volume of 5× SDS sample loading buffer, and subsequently, the reactions were run on a 12.6% polyacrylamide Tris gel. To collect the radioactive signal, the gels were then treated in the same way as previously described.[48]
After various exposures were collected to ensure linear detection, densitometry analysis was done using ImageJ software, and data were plotted as normalized activity to the no inhibitor controls.

SMILES	IC50 (human recombinant PRMT9) [nM]	% CePRMT9 residual activity (CePRMT9; 5 uM) [%]	% CePRMT9 residual activity (CePRMT9; 25 uM) [%]	% CePRMT9 residual activity (CePRMT9; 50 uM) [%]	% CePRMT9 residual activity (CePRMT9; 100 uM) [%]
COC(=O)c1cc(O)c2cc(NC(=O)NCCCNC(=N)NC[C@H]3O[C@@H](n4cnc5c(N)ncnc54)[C@H](O)[C@@H]3O)ccc2c1 [1a]	890	106.32	67.30	31.52	19.47
COC(=O)c1cc(O)c2cc(NC(=O)NCCCCNC(=N)NC[C@H]3O[C@@H](n4cnc5c(N)ncnc54)[C@H](O)[C@@H]3O)ccc2c1 [1b]	1320	114.11	95.80	52.55	39.17
COC(=O)c1cc(O)c2cc(NC(=O)NCCCCCNC(=N)NC[C@H]3O[C@@H](n4cnc5c(N)ncnc54)[C@H](O)[C@@H]3O)ccc2c1 [1c]	5800	110.89	81.62	50.08	12.31
COC(=O)c1cc(O)c2cc(NC(=O)NCCCNC(=N)NC[C@H]3O[C@@H](n4cnc5c(N)ncnc54)[C@H](O)[C@@H]3O)cc(C(F)(F)F)c2c1 [1j, Methyl 6-(3-(3-(3-(((2R,3S,4R,5R)-5-(6-Amino-9H-purin-9-yl)-3,4-dihydroxytetrahydrofuran-2-yl)methyl)guanidino)propyl)ureido)-4-hydroxy-8-(trifluoromethyl)-2-naphthoate]	200	–	–	–	–
